The record followed here is EP2926811A1, “ARTEMETHER-CONTAINING PHARMACEUTICAL COMPOSITION, PREPARATION, AND USE THEREOF” (Kunming Pharmaceutical Corp., priority 2012, dated 2014).

The test system of the assay is nude-mouse transplanted tumor of human gastric cancer MKN-45. The experiment in a line: growth of nude-mouse transplanted tumor of human gastric cancer MKN-45. The conditions noted are these: positive control, 10 mg/kg iv, day 19.

With `O=c1[nH]cc(F)c(=O)[nH]1` [5-Fu, 5-fluorouracil], the RTV is given as 10.60±2.28 and the “T/C (%)” value is on record as 37.72%.
